The target in one data set is T1, TRPV1 receptors (Mus musculus, UniProt Q704Y3).
T1 construct: from tissue; host or cells: live mice, hind leg (in vivo)
The data set is described as follows: Pain induced by intraplantar administration of capsaicin to mice. Format: in vivo. Conditions: 10 mg/kg orally 120 minutes before intraplantar capsaicin, n=10, timed over 2 minutes.

The next data set has as its target T2, TRPV1 receptor (Rattus norvegicus, UniProt O35433).
T2 construct: DRG neurones naturally express the TRPV1 receptor; endogenous in cells; host or cells: primary culture of newborn rat dorsal root ganglion neurones
Nature of the data set: Inhibition of the current induced with capsaicin on rat DRGs (whole-cell patch-clamp). Format: cell-based. The conditions noted are these: inhibition of control capsaicin response, newborn rat DRG neurones. The method, then:
Test of Inhibition of the Current Induced with Capsaicin on Rat DRGs
• Primary culture of rat dorsal root ganglion (DRG) cells:
DRG neurones naturally express the TRPV1 receptor.
The primary cultures of newborn rat DRGs are prepared using 1-day-old rats. Briefly, after dissection, the ganglions are trypsinized and the cells dissociated by mechanical trituration. The cells are resuspended in an Eagle basal culture medium containing 10% foetal calf serum, 25 mM KCl, 2 mM glutamine, 100 μg/ml gentamicin and 50 ng/ml of NGF, and then deposited on glass slides coated with laminin (0.25×10^6 cells per slide), which are then placed in Corning 12-well dishes. The cells are incubated at 37° C. in a humidified atmosphere containing 5% CO2 and 95% air. […]
The measuring chambers (volume 800 μl) containing the cell preparation are placed on the platform of an inverted microscope (Olympus IMT2) equipped with Hoffman optics (Modulation Contrast, New York) and observed at a magnification of 400×. […] The overall currents (membrane potential set at −60 mV) are recorded with an Axopatch 1D amplifier (Axon Instruments, Foster City, Calif.), connected to a PC running the Pclamp8 software (Axon Instrument). The current plots are recorded on paper and simultaneously digitized (sampling frequency 15 to 25 Hz) and acquired on the hard drive of the PC. […]
(In general: The patch-clamp technique gives a direct electrical read-out from membranes.)

By inhibition is commonly meant the change of the read-out against control, counted positive when it falls. A higher inhibition goes with a response far below the control. By melting point is commonly meant the temperature of the solid-liquid transition.

T2 sequence (O35433 whole entry): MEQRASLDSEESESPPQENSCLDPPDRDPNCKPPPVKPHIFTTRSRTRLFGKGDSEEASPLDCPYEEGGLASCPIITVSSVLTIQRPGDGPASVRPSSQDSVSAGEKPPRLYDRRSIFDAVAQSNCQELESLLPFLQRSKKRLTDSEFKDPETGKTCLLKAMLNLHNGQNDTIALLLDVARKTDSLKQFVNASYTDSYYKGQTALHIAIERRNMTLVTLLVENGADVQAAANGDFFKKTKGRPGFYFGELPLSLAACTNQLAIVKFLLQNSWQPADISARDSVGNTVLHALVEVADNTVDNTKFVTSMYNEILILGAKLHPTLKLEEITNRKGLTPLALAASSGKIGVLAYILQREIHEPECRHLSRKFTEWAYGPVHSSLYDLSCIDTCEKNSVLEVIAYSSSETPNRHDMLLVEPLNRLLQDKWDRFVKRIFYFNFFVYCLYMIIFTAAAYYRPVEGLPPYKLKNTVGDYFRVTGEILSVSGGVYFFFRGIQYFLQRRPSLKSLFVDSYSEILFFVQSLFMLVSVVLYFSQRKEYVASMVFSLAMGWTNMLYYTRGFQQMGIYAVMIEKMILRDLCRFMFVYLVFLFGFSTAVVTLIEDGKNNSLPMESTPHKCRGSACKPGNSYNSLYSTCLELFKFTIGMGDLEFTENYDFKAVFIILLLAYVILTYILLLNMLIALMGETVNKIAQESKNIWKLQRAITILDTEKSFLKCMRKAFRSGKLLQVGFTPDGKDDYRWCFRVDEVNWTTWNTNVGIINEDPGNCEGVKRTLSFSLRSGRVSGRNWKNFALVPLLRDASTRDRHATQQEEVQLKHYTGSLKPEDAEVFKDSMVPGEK
T1 sequence (Q704Y3 whole entry): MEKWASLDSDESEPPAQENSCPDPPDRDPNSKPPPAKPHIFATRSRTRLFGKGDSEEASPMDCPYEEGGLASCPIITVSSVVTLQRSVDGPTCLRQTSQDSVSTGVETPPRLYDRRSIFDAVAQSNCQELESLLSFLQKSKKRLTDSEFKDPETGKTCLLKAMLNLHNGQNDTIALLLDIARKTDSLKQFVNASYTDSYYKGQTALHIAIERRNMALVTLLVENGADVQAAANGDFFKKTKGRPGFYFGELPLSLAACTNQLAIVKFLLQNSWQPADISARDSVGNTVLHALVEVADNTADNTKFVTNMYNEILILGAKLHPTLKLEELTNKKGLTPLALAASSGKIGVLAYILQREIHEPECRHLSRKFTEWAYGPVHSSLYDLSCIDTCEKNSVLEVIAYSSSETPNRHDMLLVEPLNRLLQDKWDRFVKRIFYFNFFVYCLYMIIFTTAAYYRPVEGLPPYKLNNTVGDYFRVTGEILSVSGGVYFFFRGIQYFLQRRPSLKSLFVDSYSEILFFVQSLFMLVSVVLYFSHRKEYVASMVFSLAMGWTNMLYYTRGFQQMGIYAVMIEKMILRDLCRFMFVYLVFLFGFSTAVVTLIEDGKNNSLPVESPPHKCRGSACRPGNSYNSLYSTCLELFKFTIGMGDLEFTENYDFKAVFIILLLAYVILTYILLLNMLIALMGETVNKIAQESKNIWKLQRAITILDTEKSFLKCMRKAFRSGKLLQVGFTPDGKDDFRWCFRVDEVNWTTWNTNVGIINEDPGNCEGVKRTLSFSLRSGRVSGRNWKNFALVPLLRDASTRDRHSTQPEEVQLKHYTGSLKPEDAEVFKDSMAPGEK
Protocol for TRPV1 receptors: Pain Induced by Intraplantar Administration of Capsaicin to Mice. The intraplantar injection of capsaicin to mice rapidly produces short-lived nociceptive behaviour, which is reflected by licking, biting and flexing of the administered leg. […] Methodology: (E)-Capsaicin is initially diluted to 3 mg/ml in DMSO, and then diluted again for its final use to 1.5 μg/20 μl in physiological saline. […] The capsaicin is injected into the hind legs of the animal, on the upper face. The test compounds are administered orally 120 minutes before the injection of capsaicin. Two hours after administration of the compounds, the mice are placed in a glass beaker. The nociceptive behaviour of the animals is then assessed immediately by the experimenter, and the duration of the capsaicin-induced behavioural manifestations is timed over a period of 2 minutes (licking and biting, total or partial flexure of the injected leg). For each compound, an inhibition corresponding to the mean of the capsaicin-induced nociceptive responses, in response to a dose of test product (expressed in mg/kg) administered orally to a sample of a given number (n) of mice, is determined.

Turning to `O=C(Nc1cnc2sc(CO)nc2c1)c1cc2cc(F)ccc2n1Cc1cccc(F)c1` [Compound 4, N-(2-Hydroxymethylthiazolo[5,4-b]pyrid-6-yl)-5-fluoro-1-[(3-fluorophenyl)methyl]-1H-indole-2-carboxamide], the “% inhibition of the capsaicin-induced nociceptive responses” value on TRPV1 receptors is given as 37% (±8%). On TRPV1 receptor (0.1 nM compound), this compound registered an inhibition at 0.0001 µM of 65.5%.

`Cc1nc2cc(NC(=O)c3cc4cc(F)ccc4n3Cc3cccc(F)c3)cnc2[nH]1` [Compound 11, N-(2-Methyl-3H-imidazo[4,5-b]pyrid-6-yl)-5-fluoro-1-[(3-fluorophenyl)methyl]-1H-indole-2-carboxamide] yielded a melting point of 299 to 300 °C. The compound also returned an inhibition at 0.1 µM against TRPV1 receptor (100 nM compound) of 62%.

Values taken from patent publication US8299114B2, “Bicyclic derivatives of azabicyclic carboxamides, preparation thereof and therapeutic use thereof” (priority 2008, dated 2012).
